The source of these data is patent US20250289789A1, “REVERSIBLE LYSINE COVALENT MODIFIERS OF CDK2 AND USES THEREOF” (Terremoto Biosciences, Inc., priority 2023, published 2025).

Common to all, as to assay type: cell-based
For assay [1], the target named is T1, CDK2-NanoLuc fusion with CCNE1 in 293T or 293 cells (Homo sapiens, UniProt P24941).
T1 construct: host or cells: 293T (ATCC CRL-3216) or 293 (ATCC CRL-1573)
Description: NanoBRET Target Engagement (TE) Intracellular Kinase Assay, CDK2/CCNE1. The note with it: NanoBRET TE intracellular kinase assay, 2-hour incubation, read-out: NanoBRET-CDK2/E1 IC50. The method, then:
(§1) Inhibitory effects of compounds were measured in NanoBRET TE Intracellular Kinase Assay. […] Cells were co-transfected with 1 μg/mL of CDK-NanoLuc Fusion Vector (Promega; NV2701 for CDK1, NV2781 for CDK2, NV2811 for CDK4, NV2841 for CDK6) and 1 μg/mL of the corresponding Cyclin Expression Vector (Promega; NV2601 for CCNB1, NV2641 for CCNE1, NV2621 for CCND1, NV2631 for CCND3) using FuGENE HD Transfection Reagent (Promega; E2311). […] 20 uL/well of 3× Intracellular TE Nano-Glo Substrate/Inhibitor (Promega; N2162) were added to 384-well plates and incubated for 3 minutes at room temperature. NanoBRET signals (donor emission wavelength at 450 nm, acceptor emission wavelength at 610 nm) were measured using Envision plate reader (PerkinElmer). NanoBRET ratio was calculated by: BRET Ratio=raw signal for acceptor/raw signal for donor. Dose response curve normalized to DMSO control was plotted using four-parameter logistic model for IC50 calculation.
(In general: Bioluminescence resonance energy transfer reports proximity on the nanometre scale.)

Assay [2] addresses T2, CDK4-NanoLuc fusion with CCND1 in 293T or 293 cells (Homo sapiens, UniProt P11802).
T2 construct: host or cells: 293T (ATCC CRL-3216) or 293 (ATCC CRL-1573)
In words: NanoBRET Target Engagement (TE) Intracellular Kinase Assay, CDK4/CCND1. Particulars: NanoBRET TE intracellular kinase assay, 2-hour incubation, read-out: NanoBRET-CDK4/D1 IC50. As to the method:
as §1

The test system of assay [3] is Phospho-Rb Ser807/811 in OVCAR3 cells. In words: OVCAR3 Phospho-Rb Ser807/811 HTRF assay. The note with it: Homo sapiens, OVCAR-3, 1 h, OVCAR3 cells, Phospho-Rb Ser807/811 HTRF, 1 hour incubation; read-out: pRb-OVCAR3 IC50. As to the method: Cells were trypsinized and resuspended in 1 mM hydroxyurea (Sigma; H8627), 90% RPMI and 10% fetal bovine serum. […] Dose response curve normalized to DMSO control was plotted using four-parameter logistic model for IC50 calculation.

T2 sequence (P11802 whole entry, the tested form may be a part): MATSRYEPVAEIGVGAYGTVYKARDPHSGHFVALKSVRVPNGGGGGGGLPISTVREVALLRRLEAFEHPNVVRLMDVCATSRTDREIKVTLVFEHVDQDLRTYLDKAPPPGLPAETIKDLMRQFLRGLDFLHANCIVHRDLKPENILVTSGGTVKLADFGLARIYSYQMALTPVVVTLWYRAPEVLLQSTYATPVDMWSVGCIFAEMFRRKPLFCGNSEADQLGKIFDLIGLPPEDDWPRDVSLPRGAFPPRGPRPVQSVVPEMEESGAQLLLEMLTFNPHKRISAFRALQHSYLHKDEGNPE
T2 sequence (P24385 whole entry partner, the tested form may be a part): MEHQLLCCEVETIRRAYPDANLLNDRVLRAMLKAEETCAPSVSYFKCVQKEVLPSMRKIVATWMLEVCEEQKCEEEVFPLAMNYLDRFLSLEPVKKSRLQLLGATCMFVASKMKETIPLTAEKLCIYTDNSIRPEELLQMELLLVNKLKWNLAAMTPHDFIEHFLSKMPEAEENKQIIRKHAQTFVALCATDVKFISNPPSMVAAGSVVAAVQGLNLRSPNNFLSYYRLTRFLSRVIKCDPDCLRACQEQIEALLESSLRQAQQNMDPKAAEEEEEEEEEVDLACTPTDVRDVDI

For the molecule `COc1cc(O)c(C=O)c(OCC(=O)Nc2cc([C@H]3CC[C@@H](OC(=O)N4CC[C@H]4C#N)C3)[nH]n2)c1` (stereo in doubt) [Compound 126], the IC50 in assay [1] was 9.62 nM; in assay [2], 7310 nM; in assay [3], 75.7 nM.
The matching figures for `CCOc1cc(O)c(C=O)c(OCC(=O)Nc2cc([C@H]3CC[C@@H](OC(=O)NC4(C)CC4)C3)[nH]n2)c1` [Compound 115]: 1.94 nM, 1240 nM and 16.3 nM.
On to `COc1cc(O)c(C=O)c(OCC(=O)Nc2cc([C@H]3CC[C@@H](OC(=O)NCCOC(F)F)C3)n[nH]2)c1` [Compound 116], for which the results for the IC50 in assay [1], in assay [2] and in assay [3] were 4.5 nM, 4360 nM and 32.3 nM, respectively.
The matching figures for `COc1cc(O)c(C=O)c(OCC(=O)Nc2cc([C@H]3CC[C@@H](OC(=O)NCCOC(F)(F)F)C3)n[nH]2)c1` [Compound 117]: 2.19 nM, 8090 nM and 22 nM.
The matching figures for `COc1cc(O)c(C=O)c(OCC(=O)Nc2cc([C@H]3CC[C@@H](OC(=O)N4C[C@H]5C[C@@H]4CS5(=O)=O)C3)n[nH]2)c1` [Compound 118]: 55.4 nM, 6480 nM and 101 nM.
The matching figures for `COc1cc(O)c(C=O)c(OCC(=O)Nc2cc([C@H]3CC[C@@H](OC(=O)N[C@H](C)CC(F)F)C3)[nH]n2)c1` [Compound 119]: 2.31 nM, 7860 nM and 26.4 nM.
As for `COc1cc(O)c(C=O)c(OCC(=O)Nc2cc([C@H]3CC[C@@H](OC(=O)N[C@@H](C)CF)C3)[nH]n2)c1` [Compound 120], the IC50 was determined as 2.64 nM in assay [1], 2970 nM in assay [2] and 13.4 nM in assay [3].
The matching figures for `COc1cc(O)c(C=O)c(OCC(=O)Nc2cc([C@H]3CC[C@@H](OC(=O)N(C)CC(F)F)C3)[nH]n2)c1` [Compound 121]: 1.99 nM, 2440 nM and 18.5 nM.
The corresponding values for `COc1cc(O)c(C=O)c(OCC(=O)Nc2cc([C@H]3CC[C@@H](OC(=O)N4C[C@H](F)[C@@H]4C)C3)[nH]n2)c1` [Compound 122] are 1.99 nM, 1310 nM and 20.9 nM.
Turning to `COc1cc(O)c(C=O)c(OCC(=O)Nc2cc([C@H]3CC[C@@H](OC(=O)N4[C@H](C)C[C@@H]4C)C3)[nH]n2)c1` [Compound 123], the IC50 was found to be 2.62 nM in assay [1], 2570 nM in assay [2] and 27 nM in assay [3].
The corresponding values for `COc1cc(O)c(C=O)c(OCC(=O)Nc2cc([C@H]3CC[C@@H](OC(=O)N4C[C@@H](F)[C@H](F)C4)C3)n[nH]2)c1` [Compound 124] are 1.99 nM, 2580 nM and 37.7 nM.
Take `COc1cc(O)c(C=O)c(OCC(=O)Nc2cc([C@H]3CC[C@@H](OC(=O)N4C[C@H](F)C[C@@H]4C)C3)n[nH]2)c1` [Compound 125]: the IC50 in assay [1] was found to be 3.12 nM; in assay [2], 1540 nM; in assay [3], 53.4 nM.
The matching figures for `COc1cc(O)c(C=O)c(OCC(=O)Nc2cc([C@H]3CC[C@@H](OC(=O)NCC#N)C3)[nH]n2)c1` [Compound 127]: 25.9 nM, 8530 nM and 98.3 nM.
The corresponding values for `COc1cc(O)c(C=O)c(OCC(=O)Nc2cc([C@H]3CC[C@@H](OC(=O)N4CC(F)(F)C4)C3)[nH]n2)c1` [Compound 129] are 1.96 nM, 7620 nM and 44.5 nM.
For `COc1cc(O)c(C=O)c(O[C@H](C)C(=O)Nc2cc([C@H]3CC[C@@H](OC(=O)NC4(C)CC4)C3)[nH]n2)c1` [Compound 130, (1R,3S)-3-(3-((R)-2-(2-formyl-3-hydroxy-5-methoxyphenoxy)propanamido)-1H-pyrazol-5-yl)cyclopentyl (1-methylcyclopropyl)carbamate], the IC50 in assay [1] amounted to 3.69 nM; in assay [2], 864 nM; in assay [3] it was 24.9 nM.
The corresponding values for `COc1cc(O)c(C=O)c(OCC(=O)Nc2cc([C@H]3CC[C@@H](OC(=O)N4CCC[C@H](C#N)C4)C3)[nH]n2)c1` [Compound 131, (1R,3S)-3-{5-[2-(2-formyl-3-hydroxy-5-methoxyphenoxy)acetamido]-2H-pyrazol-3-yl}cyclopentyl (3S)-3-cyanopiperidine-1-carboxylate] are 3.25 nM, 697 nM and 12.5 nM.
The matching figures for `COc1cc(O)c(C=O)c(OCC(=O)Nc2cc([C@H]3CC[C@@H](OC(=O)N[C@@H]4C[C@@H]4F)C3)[nH]n2)c1` [Compound 133]: 4.42 nM, 2800 nM and 19.6 nM.
Consider `COc1cc(O)c(C=O)c(OCC(=O)Nc2cc([C@H]3CC[C@@H](OC(=O)N[C@@H](C)C(F)F)C3)[nH]n2)c1` [Compound 134], for which the IC50 in assay [1] was 3.26 nM; in assay [2], 3800 nM; in assay [3], 37.1 nM.
As for `CCCONC(=O)O[C@@H]1CC[C@H](c2cc(NC(=O)COc3cc(OC)cc(O)c3C=O)n[nH]2)C1` [Compound 135], the IC50 in assay [1] was 3.41 nM; in assay [2], more than 10000 nM; in assay [3] it was 92.7 nM.
With `COc1cc(O)c(C=O)c(OCC(=O)Nc2cc([C@H]3CC[C@@H](OC(=O)NC4(CF)CC4)C3)[nH]n2)c1` [Compound 136], the IC50 in assay [1] worked out at 2.22 nM; in assay [2], 1420 nM; in assay [3], 16.9 nM.
For the molecule `COc1cc(O)c(C=O)c(OCC(=O)Nc2cc([C@H]3CC[C@@H](OC(=O)NCc4cnn(C)c4)C3)[nH]n2)c1` [Compound 137], the values for the IC50 in assay [1], in assay [2] and in assay [3] were 21.6 nM, more than 10000 nM and 295 nM, respectively.
In the case of `COc1cc(O)c(C=O)c(OCC(=O)Nc2cc([C@H]3CC[C@@H](OC(=O)N[C@H]4C[C@@H](C#N)C4)C3)[nH]n2)c1` [Compound 138], the IC50 in assay [1] was 4.71 nM; in assay [2], 5860 nM; in assay [3], 80.6 nM.
The corresponding values for `Cc1cc(O)c(C=O)c(OCC(=O)Nc2cc([C@H]3CC[C@@H](OC(=O)NC4(C#N)CC4)C3)[nH]n2)c1` [Compound 139] are 12.9 nM, 3990 nM and 178 nM.
As to `COc1cc(O)c(C=O)c(OCC(=O)Nc2cc([C@H]3CC[C@@H](OC(=O)NC4(C(F)F)CC4)C3)[nH]n2)c1` [Compound 140, (1R,3S)-3-{5-[2-(2-formyl-3-hydroxy-5-methoxyphenoxy)acetamido]-2H-pyrazol-3-yl}cyclopentyl N-[1-(difluoromethyl)cyclopropyl]carbamate], the IC50 in assay [1] was 2.82 nM; in assay [2], 1080 nM; in assay [3], 16.1 nM.
The corresponding values for `CCc1cc(O)c(C=O)c(OCC(=O)Nc2cc([C@H]3CC[C@@H](OC(=O)NC4(C)CC4)C3)[nH]n2)c1` [Compound 141] are 1.87 nM, 5500 nM and 100 nM.
The matching figures for `COc1cc(O)c(C=O)c(OCC(=O)Nc2cc([C@H]3CC[C@@H](OC(=O)NCC(F)F)C3)[nH]n2)c1` [Compound 142]: 3.76 nM, 7020 nM and 53.3 nM.
